Source: article PMC9266368, “Synthesis and Biological Evaluation of Small Molecules as Potential Anticancer Multitarget Agents” (International Journal of Molecular Sciences, 2022)

How the values were obtained:
[1] = test system: HT-29 (colon adenocarcinoma); experiment: MTT cell viability assay, HT-29; assay type: cell-based; conditions: Homo sapiens, HT-29, 48 h, 2 days incubation, average ±SD of three experiments
Experimental: (§1) The effects of triazole derivatives 1–26 on the cell viability were determined by MTT assay, and the IC50 values were determined toward the human tumor cell lines HT-29 (colon adenocarcinoma), A-549 (lung adenocarcinoma), and MCF-7 (breast adenocarcinoma), as well as toward the non-tumor cell line HEK-293 (human embryonic kidney cells).
(§2) In 96-well plates, 3 × 10^3 (A549 and HEK-293) or 5 × 10^3 (HT-29, MCF-7) cells per well were incubated with serial dilutions of the tested compounds in a total volume of 100 μL of their growth media. The 3-(4,5-dimethylthiazol-2-yl)-2,5-diphenyltetrazolium bromide (MTT; Sigma Chemical Co.) dye reduction assay in 96-well microplates was used. After 2 days of incubation (37 °C, 5% CO2 in a humid atmosphere), 10 μL of MTT (5 mg/mL in phosphate-buffered saline, PBS) was added to each well, and the plate was incubated for a further 3 h (37 °C). After that, the supernatant was discarded and replaced by 100 µL of DMSO to dissolve formazan crystals. The absorbance was then read at 550 nm by spectro-photometry. For all concentrations of compound, cell viability was expressed as the percentage of the ratio between the mean absorbance of treated cells and the mean absorbance of untreated cells. Three independent experiments were performed, and the IC50 values (i.e., concentration half inhibiting cell proliferation) were graphically determined by using GraphPad Prism 4 software (2019).

total PD-L1 (tPD-L1) = target: T1, total PD-L1 (tPD-L1) (Homo sapiens, UniProt Q9NZQ7); experiment: Total PD-L1 relative quantification by flow cytometry; assay type: cell-based; conditions: for tPD-L1 relative detection, A-549 / tPD-L1 relative detection, HT-29 / tPD-L1 relative detection, MCF-7: 24 h, 100 or 10 μM (Table 7), relative to DMSO control
T1 construct: endogenous in cells; host or cells: HT-29, A-549, MCF-7
T1 sequence (Q9NZQ7 19-290): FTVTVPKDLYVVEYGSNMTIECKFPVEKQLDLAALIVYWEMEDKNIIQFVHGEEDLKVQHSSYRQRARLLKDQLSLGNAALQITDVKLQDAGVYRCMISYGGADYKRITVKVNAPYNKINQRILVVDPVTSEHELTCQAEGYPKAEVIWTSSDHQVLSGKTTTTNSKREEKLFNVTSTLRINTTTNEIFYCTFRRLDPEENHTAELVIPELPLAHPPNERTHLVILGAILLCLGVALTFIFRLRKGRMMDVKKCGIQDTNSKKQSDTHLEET
Experimental: (§3) The study was carried out again on HT-29, A-549, and MCF-7 cell lines by flow cytometry after 24 h of treatment with the corresponding compounds. The presence of the targets in the whole cell were relatively determined by using DMSO-treated cells as a negative control and BMS-8 as a positive one for PD-L1 (Table 3).
(§4) To study the effect of the compounds on every biological target in cancer cell lines the compounds were used at a 100 or 10 μM dose, depending on their IC50 and the treated cell line.
(§5) For the assay, 10^5 cells per well were incubated for 24 h with the corresponding dose of the tested compound in a total volume of 500 μL of their growth media.
(§6) For the detection of total PD-L1, VEGFR-2, and c-Myc, the procedure was the same as for membrane targets, but after fixation, a treatment with 0,5% in PBS TritonTM X-100 was performed. The antibodies used for PD-L1 and VEGFR-2 were the ones previously described, and for the detection of c-Myc, it was FITC Rabbit monoclonal anti-c-Myc (ab223913).

Jurkat T cells = experiment: Co-culture HT-29 + PD-1 Jurkat T cells: living Jurkat cells; assay type: cell-based; conditions: 100 μM, 24 h; related to non-treated samples
Experimental: (§7) Cellular PD-1/PD-L1 blocking activity was studied in a co-culture system with PD-1 Jurkat T cells stimulated by interferon γ and PD-L1-expressing cancer cells. Thereby, we selected chloro derivatives 21–23 to study the proliferation of cancer cells co-cultured in the presence of PD-1 expressing Jurkat T cells in order to evaluate whether the observed PD-L1 inhibition is translated to the blockage of PD-1/PD-L1 system. […] Thus, tumor cells HT-29 were treated for 24 h with the selected compounds at 100 μM in the presence of Jurkat T cells and then living cells were counted by using cytometry and a Neubauer chamber.

[2] = test system: MCF-7 (breast adenocarcinoma); experiment: MTT cell viability assay, MCF-7; assay type: cell-based; conditions: Homo sapiens, MCF7, 48 h, 2 days incubation, average ±SD of three experiments
Experimental: as §1, §2

[3] = test system: A-549 (lung adenocarcinoma); experiment: MTT cell viability assay, A-549; assay type: cell-based; conditions: Homo sapiens, A549, 48 h, 2 days incubation, average ±SD of three experiments
Experimental: as §1, §2

c-Myc = c-Myc relative quantification by flow cytometry; assay type: cell-based, human; conditions: for c-Myc relative detection, A-549 / c-Myc relative detection, HT-29 / c-Myc relative detection, MCF-7: 24 h, 100 or 10 μM (Table 7), relative to DMSO control
Experimental: as §3, §4, §5, §6

membrane PD-L1 (mPD-L1) = target: T2, membrane PD-L1 (mPD-L1) (Homo sapiens, UniProt Q9NZQ7); experiment: Membrane PD-L1 relative quantification by flow cytometry; assay type: cell-based; conditions: 24 h, 100 or 10 μM (Table 7), percentage referred to DMSO control
T2 construct: endogenous in cells; host or cells: HT-29, A-549, MCF-7
T2 sequence (Q9NZQ7 19-290): as above
Experimental: Based on antiproliferative activity of synthetized derivatives, we decided to study the effect of the amino derivatives 14–26 on the expression of both membrane targets PD-L1 and VEGFR-2 (mPD-L1 and mVEGFR-2). The evaluation was performed on three cancer cell lines (HT-29, A-549, and MCF-7) by flow cytometry after 24 h of treatment with the corresponding compounds. Compounds were used at a 100 or 10 μM concentration depending on their IC50 value (see Table 1 in Materials and Methods section). The presence of both targets in the membrane was relatively determined by using DMSO-treated cells as a negative control.
as §4, §5
To detect membrane PD-L1 and VEGFR-2, after the cell treatments, they were collected, fixed with 4% in PBS paraformaldehyde, and stained with FITC Mouse monoclonal Anti-Human VEGFR-2 (ab184903) and Alexa Fluor® 647 Rabbit monoclonal Anti-PD-L1 (ab215251).

[4] = test system: HEK-293 (human embryonic kidney cells); experiment: MTT cell viability assay, HEK-293; assay type: cell-based; conditions: HEK293, 48 h, 2 days incubation, non-tumor cell line, average ±SD of three experiments
Experimental: as §1, §2

[5] = test system: HT-29 cells co-cultured with Jurkat T cells; experiment: Co-culture HT-29 + PD-1 Jurkat T cells: living HT-29 cells; assay type: cell-based, human; conditions: 100 μM, 24 h; related to non-treated samples
Experimental: as §7

PD-L1 = target: T3, PD-L1 (Homo sapiens, UniProt Q9NZQ7); experiment: Protein thermal shift (PTS) assay; assay type: binding
T3 construct: purchased ab167713
T3 sequence (Q9NZQ7 19-290): as above
Source text: This assay measures the melting point (Tm) of the target protein which is a proxy of its stability that can be altered by the binding of a ligand. A change in the melting point relative to the unliganded form implies that a ligand has bound itself to the targeted protein. According to the fundamentals of this technique, an increase in Tm means that the binding of the ligand leads to a stabilization of the target protein, while a decrease in Tm is probably due to the fact that the binding between the ligand and its target leads to a destabilization of the protein. In this case, the tested compounds were able to change the PD-L1 melting temperature.
PTS assay was performed by following the instructions indicated in Protein Thermal ShiftTM Dye Kit (Applied Biosystems reference 4461146), using 2 μL of a 0.1 mg/mL of an aqueous solution of PD-L1 (reference ab167713) and 1.5 μL of a 0.1 mg/mL aqueous solution of the corresponding product. The melting curves were registered by a StepOneTM Real-Time PCR System.

[6] = target: T4, membrane VEGFR-2 (mVEGFR-2) (Homo sapiens, UniProt P35968); experiment: Membrane VEGFR-2 relative quantification by flow cytometry; assay type: cell-based; conditions: 24 h, 100 or 10 μM (Table 7), sorafenib 10 μM, percentage referred to DMSO control
T4 construct: endogenous in cells; host or cells: HT-29, A-549, MCF-7
T4 sequence (P35968 20-1356): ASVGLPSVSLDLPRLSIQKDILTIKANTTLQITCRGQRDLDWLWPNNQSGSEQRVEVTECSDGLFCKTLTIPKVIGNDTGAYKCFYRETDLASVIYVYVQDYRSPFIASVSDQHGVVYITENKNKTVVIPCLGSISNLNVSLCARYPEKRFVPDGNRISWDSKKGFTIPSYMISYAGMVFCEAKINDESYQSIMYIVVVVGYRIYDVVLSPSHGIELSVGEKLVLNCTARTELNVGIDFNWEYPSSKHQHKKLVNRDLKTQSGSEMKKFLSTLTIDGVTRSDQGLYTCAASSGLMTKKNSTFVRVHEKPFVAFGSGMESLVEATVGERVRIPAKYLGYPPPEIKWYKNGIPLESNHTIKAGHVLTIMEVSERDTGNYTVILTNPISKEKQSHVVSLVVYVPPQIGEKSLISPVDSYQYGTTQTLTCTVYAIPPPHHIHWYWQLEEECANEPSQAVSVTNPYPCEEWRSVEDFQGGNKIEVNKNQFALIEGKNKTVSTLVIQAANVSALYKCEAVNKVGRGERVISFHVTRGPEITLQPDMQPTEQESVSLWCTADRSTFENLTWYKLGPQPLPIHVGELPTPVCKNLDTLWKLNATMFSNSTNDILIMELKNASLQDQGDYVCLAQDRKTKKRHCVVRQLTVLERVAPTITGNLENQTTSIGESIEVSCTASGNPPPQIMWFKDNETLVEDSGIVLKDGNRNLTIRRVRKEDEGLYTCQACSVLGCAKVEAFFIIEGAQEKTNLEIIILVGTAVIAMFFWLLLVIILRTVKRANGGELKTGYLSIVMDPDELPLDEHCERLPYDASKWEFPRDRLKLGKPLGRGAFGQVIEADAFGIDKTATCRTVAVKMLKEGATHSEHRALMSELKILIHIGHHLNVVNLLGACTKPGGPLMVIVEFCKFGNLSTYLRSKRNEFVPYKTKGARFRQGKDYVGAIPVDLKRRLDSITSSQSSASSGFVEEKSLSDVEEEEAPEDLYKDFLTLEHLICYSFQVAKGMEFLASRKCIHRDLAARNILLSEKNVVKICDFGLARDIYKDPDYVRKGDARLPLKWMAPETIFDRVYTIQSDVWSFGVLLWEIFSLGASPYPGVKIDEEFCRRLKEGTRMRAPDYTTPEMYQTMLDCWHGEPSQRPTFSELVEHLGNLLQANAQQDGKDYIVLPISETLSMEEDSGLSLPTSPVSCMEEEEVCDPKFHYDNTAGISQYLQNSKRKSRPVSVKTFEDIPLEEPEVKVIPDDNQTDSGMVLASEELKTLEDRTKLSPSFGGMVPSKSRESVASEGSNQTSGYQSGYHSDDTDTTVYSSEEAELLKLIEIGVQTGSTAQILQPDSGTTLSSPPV
Experimental: The presence of both targets in the membrane was relatively determined by using DMSO-treated cells as a negative control.
as §5

[7] = HT-29, compared to non-treated cells

Compound | IC50 [1] [µM] | tPD-L1 relative detection, A-549 (total PD-L1 (tPD-L1)) [%] | tPD-L1 relative detection, HT-29 (total PD-L1 (tPD-L1); HT-29) [%] | tPD-L1 relative detection, MCF-7 (total PD-L1 (tPD-L1)) [%] | IC50 [2] [µM] | IC50 [3] [µM] | c-Myc relative detection, A-549 (c-Myc) [%] | c-Myc relative detection, HT-29 (c-Myc; HT-29) [%] | c-Myc relative detection, MCF-7 (c-Myc; MCF-7) [%] | mPD-L1 relative detection, A-549 (membrane PD-L1 (mPD-L1)) [%] | mPD-L1 relative detection, HT-29 (membrane PD-L1 (mPD-L1)) [%] | mPD-L1 relative detection, MCF-7 (membrane PD-L1 (mPD-L1)) [%] | IC50 [4] [µM] | mVEGFR-2 relative detection, A-549 [6] [%] | mVEGFR-2 relative detection, HT-29 [6] [%] | mVEGFR-2 relative detection, MCF-7 [6] [%] | melting point [°C] | Inhibition of total PD-L1, A-549 (total PD-L1 (tPD-L1); compared to non-treated cells) [%] | Inhibition of c-Myc, A-549 (c-Myc; compared to non-treated cells) | further results
Cc1c(COc2ccc(CN3CCCCC3C(=O)O)cc2Br)cccc1-c1ccccc1 (centres unmarked) [BMS-8, reference compound] | 19 ± 2 | 66 ± 8 | 62 ± 3 | 68 ± 5 | 20 ± 3 | 6 ± 1 | 135 ± 15 | 99 ± 7 | 60 ± 7 | 99 ± 10 | 95 ± 12 | 90 ± 8 | 60 ± 10 |  |  |  |  |  |  | Relative number of living Jurkat cells in co-culture with HT-29 (Jurkat T cells): 110 ± 4%; Relative number of living HT-29 cells in co-culture with Jurkat T [5]: 51 ± 8%; PTS Tm (PD-L1; PD-L1 melting temperature, DMSO 34 °C): 38 °C; PTS ΔTm (PD-L1; shift of PD-L1 melting temperature vs DMSO): +4 °C
COc1cccc(Cn2cc(-c3ccc(N)cc3)nn2)c1 [Compound 19, 4-(1-(3-methoxybenzyl)-1H-1,2,3-triazol-4-yl)aniline] | > 100 | >100 | 85 ± 17 | >100 | 12 ± 5 | > 100 | >100 | >100 | 55 ± 5 | >100 | >100 | 96 ± 5 | > 100 | >100 | 94 ± 1 | >100 | 103 to 105 |  |  | 
COc1ccc(Cn2cc(-c3ccc(N)cc3)nn2)cc1 [Compound 20, 4-(1-(4-methoxybenzyl)-1H-1,2,3-triazol-4-yl)aniline] | > 100 | 54 ± 6 | 67 ± 3 | >100 | 6 ± 4 | > 100 | 69 ± 9 | 74 ± 23 | 62 ± 7 | 95 ± 8 | >100 | 91 ± 9 | > 100 | >100 | 92 ± 14 | >100 | 132 to 134 | ~50 | around 30% | Inhibition/downregulation of total PD-L1, HT-29 (total PD-L1 (tPD-L1); [7]): around 35%; Inhibition of c-Myc, HT-29 (c-Myc; [7]): around 30%; Inhibition of c-Myc, MCF-7 (c-Myc; MCF-7): around 30%
Nc1ccc(-c2cn(Cc3ccccc3Br)nn2)cc1 [Compound 24, 4-(1-(2-bromobenzyl)-1H-1,2,3-triazol-4-yl)aniline] | 3.7 | 56 ± 7 | 45 ± 3 | >100 | 5 ± 1 | 0.45 | >100 | >100 | 57 ± 8 | 88 ± 12 | 86 ± 11 | 91 ± 10 | > 100 | >100 | 84 ± 8 | >100 | 133 to 134 | ~50 |  | 
Nc1ccc(-c2cn(Cc3ccc(Br)cc3)nn2)cc1 [Compound 26, 4-(1-(4-bromobenzyl)-1H-1,2,3-triazol-4-yl)aniline] | 14 ± 6 | 80 ± 12 | 51 ± 2 | >100 | 8 ± 1 | 8 ± 2 | 82 ± 4 | >100 | 64 ± 6 | 76 ± 4 | 94 ± 15 | 84 ± 23 | > 100 | >100 | 85 ± 7 | >100 | 169 to 170 |  | 20% | 
